In US12448400B2, “KRAS G12D modulating compounds” (priority 2023, dated 2025):

Each compound was assayed on GP2D (KRAS G12D) cells (assay: 2D cell viability assay (CellTiter-Glo)). Settings: 96 h; GP2D cells, 4 days, CellTiter-Glo luminescence; read-out: G12D 2D EC50.
Type: cell-based
Description: Example B. 2D Cell Viability Assay
Compounds were tested in a 384-well format for their ability to inhibit the viability of GP2D (KRAS G12D) cells in 2D assays. Compounds were serially diluted (1:3) in DMSO. The LabCyte ECHO Acoustic dispenser system was used to pre-spot assay plates with 200 nL of test molecule per well. 1000 cells/well (40 μL volume per well) in RPMI medium with 10% FBS, and Penicillin-Streptomycin-Glutamine were plated in pre-spotted 384-well plates (Greiner, Catalog #781076) on the BioTEK EL406 liquid dispenser with a 5 μL dispensing cassette (BioTek 7170011). The plates were incubated at 37° C., 5% CO2 for 4 days before addition of CellTiter-Glo (CTG) reagent and measurement of luminescence signal. EC50 values were defined as the compound concentration that causes a 50% decrease in luminescence signal and were calculated using a sigmoidal dose-response model to generate curve fits.
CCc1c(F)ccc2cc(O)cc(-c3c(F)c4c5c(nc(OC[C@@]67CCCN6C[C@H](F)C7)nc5c3F)N3C[C@H]5CC[C@H](N5)[C@H]3CCC4)c12 (atropisomer, axis not shown; (aR)) [Example 77-P, 4-((1S,4R,11R,15aR)-10,12-difluoro-8-(((2R,7aS)-2-fluorotetrahydro-1H-pyrrolizin-7a(5H)-yl)methoxy)-2,3,4,5,13,14,15,15a-octahydro-1H-1,4-epiminoazepino[1′,2′:1,8]azocino[2,3,4-de]quinazolin-11-yl)-5-ethyl-6-fluoronaphthalen-2-ol] was tested, and the EC50 was 290 pM.
Work on C#Cc1c(F)ccc2cc(O)cc(-c3c(F)c4c5c(nc(OC[C@]6(C)CN(C)CC[C@@H]6C(F)F)nc5c3F)N3C[C@H]5CC[C@@H]([C@H]3CCC4)N5Cc3oc(=O)oc3C)c12 (atropisomer, axis not shown; (aR)) [Example 78, 4-(((1S,4R,15aR)-8-(((3S,4S)-4-(difluoromethyl)-1,3-dimethylpiperidin-3-yl)methoxy)-11-((R)-8-ethynyl-7-fluoro-3-hydroxynaphthalen-1-yl)-10,12-difluoro-2,3,4,5,13,14,15,15a-octahydro-1H-1,4-epiminoazepino[1′,2′:1,8]azocino[2,3,4-de]quinazolin-16-yl)methyl)-5-methyl-1,3-dioxol-2-one] yielded an EC50 of 80 pM.
For Cc1oc(=O)oc1CN1[C@@H]2CC[C@H]1[C@@H]1[C@@H](C)Cc3c(Cl)c(-c4ccc(F)c5sc(N)c(C#N)c45)c(F)c4nc(OC[C@@]56CCCN5C[C@H](F)C6)nc(c34)N1C2 (atropisomer, axis not shown; (aS)) [Example 71, 2-amino-4-((1S,4R,11R,14S,14aS)-12-chloro-10-fluoro-8-(((2R,7aS)-2-fluorotetrahydro-1H-pyrrolizin-7a(5H)-yl)methoxy)-14-methyl-15-((5-methyl-2-oxo-1,3-dioxol-4-yl)methyl)-1,2,3,4,5,13,14,14a-octahydro-1,4-epiminoazepino[1′,2′:1,7]azepino[2,3,4-de]quinazolin-11-yl)-7-fluorobenzo[b]thiophene-3-carbonitrile], the EC50 was 410 pM.
Work on C[C@H]1Cc2c(Cl)c(-c3ccc(F)c4sc(N)c(C#N)c34)c(F)c3nc(OC[C@@]45CCCN4C[C@H](F)C5)nc(c23)N2C[C@H]3CC[C@H](N3)[C@H]12 (atropisomer, axis not shown; (aS)) [Example 71-P, 2-amino-4-((1S,4R,11R,14S,14aS)-12-chloro-10-fluoro-8-(((2R,7aS)-2-fluorotetrahydro-1H-pyrrolizin-7a(5H)-yl)methoxy)-14-methyl-1,2,3,4,5,13,14,14a-octahydro-1,4-epiminoazepino[1′,2′:1,7]azepino[2,3,4-de]quinazolin-11-yl)-7-fluorobenzo[b]thiophene-3-carbonitrile] yielded an EC50 of 180 pM.
Work on C#Cc1c(F)ccc2cccc(-c3nc4c5c(nc(OC[C@@]67CCCN6C[C@H](F)C7)nc5c3F)N3C[C@H]5CC[C@@H]([C@H]3CCC4)N5Cc3oc(=O)oc3CCCCC)c12 [Example 20, 4-(((6aR,7S,10R)-2-(8-ethynyl-7-fluoronaphthalen-1-yl)-1-fluoro-13-(((2R,7aS)-2-fluorotetrahydro-1H-pyrrolizin-7a(5H)-yl)methoxy)-5,6,6a,7,8,9,10,11-octahydro-4H-3,11a,12,14,15-pentaaza-7,10-methanocyclohepta[4,5]cycloocta[1,2,3-de]naphthalen-15-yl)methyl)-5-pentyl-1,3-dioxol-2-one] yielded an EC50 of 5000 pM.
In the case of C#Cc1c(F)ccc2cccc(-c3nc4c5c(nc(OC[C@@]67CCCN6C[C@H](F)C7)nc5c3F)N3C[C@H]5CC[C@@H]([C@H]3CCC4)N5Cc3oc(=O)oc3CCCCCC)c12 [Example 21, 4-(((6aR,7S,10R)-2-(8-ethynyl-7-fluoronaphthalen-1-yl)-1-fluoro-13-(((2R,7aS)-2-fluorotetrahydro-1H-pyrrolizin-7a(5H)-yl)methoxy)-5,6,6a,7,8,9,10,11-octahydro-4H-3,11a,12,14,15-pentaaza-7,10-methanocyclohepta[4,5]cycloocta[1,2,3-de]naphthalen-15-yl)methyl)-5-hexyl-1,3-dioxol-2-one], the EC50 is reported as 5200 pM.
In the case of CCCCc1oc(=O)oc1CN1[C@@H]2CC[C@H]1[C@H]1CCCc3nc(-c4cc(O)cc5ccc(F)c(OC(F)(F)F)c45)c(F)c4nc(OC[C@@]56CCCN5C[C@H](F)C6)nc(c34)N1C2 [Example 22, 4-butyl-5-(((6aR,7S,10R)-1-fluoro-2-(7-fluoro-3-hydroxy-8-(trifluoromethoxy)naphthalen-1-yl)-13-(((2R,7aS)-2-fluorotetrahydro-1H-pyrrolizin-7a(5H)-yl)methoxy)-5,6,6a,7,8,9,10,11-octahydro-4H-3,11a,12,14,15-pentaaza-7,10-methanocyclohepta[4,5]cycloocta[1,2,3-de]naphthalen-15-yl)methyl)-1,3-dioxol-2-one], the EC50 is reported as 850 pM.
CCCCCc1oc(=O)oc1CN1[C@@H]2CC[C@H]1[C@H]1CCCc3nc(-c4cc(O)cc5ccc(F)c(OC(F)(F)F)c45)c(F)c4nc(OC[C@@]56CCCN5C[C@H](F)C6)nc(c34)N1C2 [Example 23, 4-(((6aR,7S,10R)-1-fluoro-2-(7-fluoro-3-hydroxy-8-(trifluoromethoxy)naphthalen-1-yl)-13-(((2R,7aS)-2-fluorotetrahydro-1H-pyrrolizin-7a(5H)-yl)methoxy)-5,6,6a,7,8,9,10,11-octahydro-4H-3,11a,12,14,15-pentaaza-7,10-methanocyclohepta[4,5]cycloocta[1,2,3-de]naphthalen-15-yl)methyl)-5-pentyl-1,3-dioxol-2-one] showed an EC50 of 920 pM.
With CCCCCCc1oc(=O)oc1CN1[C@@H]2CC[C@H]1[C@H]1CCCc3nc(-c4cc(O)cc5ccc(F)c(OC(F)(F)F)c45)c(F)c4nc(OC[C@@]56CCCN5C[C@H](F)C6)nc(c34)N1C2 [Example 24, 4-(((6aR,7S,10R)-1-fluoro-2-(7-fluoro-3-hydroxy-8-(trifluoromethoxy)naphthalen-1-yl)-13-(((2R,7aS)-2-fluorotetrahydro-1H-pyrrolizin-7a(5H)-yl)methoxy)-5,6,6a,7,8,9,10,11-octahydro-4H-3,11a,12,14,15-pentaaza-7,10-methanocyclohepta[4,5]cycloocta[1,2,3-de]naphthalen-15-yl)methyl)-5-hexyl-1,3-dioxol-2-one] the EC50 was 1100 pM.
C#Cc1c(F)ccc2cc(OC(=O)O[C@@H](C)C(C)C)cc(-c3nc4c5c(nc(OC[C@@]67CCCN6C[C@H](F)C7)nc5c3F)N3C[C@H]5CC[C@@H]([C@H]3CCC4)N5Cc3oc(=O)oc3C)c12 [Example 39, 5-ethynyl-6-fluoro-4-((6aR,7S,10R)-1-fluoro-13-(((2R,7aS)-2-fluorotetrahydro-1H-pyrrolizin-7a(5H)-yl)methoxy)-15-((5-methyl-2-oxo-1,3-dioxol-4-yl)methyl)-5,6,6a,7,8,9,10,11-octahydro-4H-3,11a,12,14,15-pentaaza-7,10-methanocyclohepta[4,5]cycloocta[1,2,3-de]naphthalen-2-yl)naphthalen-2-yl ((S)-3-methylbutan-2-yl) carbonate] showed an EC50 of 260 pM.
With C#Cc1c(F)ccc2cc(O)cc(-c3nc4c5c(nc(OC[C@@]67CCCN6C[C@H](F)C7)nc5c3F)N3C[C@H]5CC[C@@H]([C@H]3CCC4)N5Cc3oc(=O)oc3CC)c12 [Example 40, 4-ethyl-5-(((6aR,7S,10R)-2-(8-ethynyl-7-fluoro-3-hydroxynaphthalen-1-yl)-1-fluoro-13-(((2R,7aS)-2-fluorotetrahydro-1H-pyrrolizin-7a(5H)-yl)methoxy)-5,6,6a,7,8,9,10,11-octahydro-4H-3,11a,12,14,15-pentaaza-7,10-methanocyclohepta[4,5]cycloocta[1,2,3-de]naphthalen-15-yl)methyl)-1,3-dioxol-2-one] the EC50 was 220 pM.
Work on C#Cc1c(F)ccc2cc(O)cc(-c3nc4c5c(nc(OC[C@@]67CCCN6C[C@H](F)C7)nc5c3F)N3C[C@H]5CC[C@@H]([C@H]3CCC4)N5Cc3oc(=O)oc3CCC)c12 [Example 41, 4-(((6aR,7S,10R)-2-(8-ethynyl-7-fluoro-3-hydroxynaphthalen-1-yl)-1-fluoro-13-(((2R,7aS)-2-fluorotetrahydro-1H-pyrrolizin-7a(5H)-yl)methoxy)-5,6,6a,7,8,9,10,11-octahydro-4H-3,11a,12,14,15-pentaaza-7,10-methanocyclohepta[4,5]cycloocta[1,2,3-de]naphthalen-15-yl)methyl)-5-propyl-1,3-dioxol-2-one] yielded an EC50 of 180 pM.
Work on C#Cc1c(F)ccc2cc(OCc3oc(=O)oc3C(C)(C)C)cc(-c3nc4c5c(nc(OC[C@@]67CCCN6C[C@H](F)C7)nc5c3F)N3C[C@H]5CC[C@H](N5)[C@@H]3[C@@H](C)C4)c12 [Example 67, 4-(tert-butyl)-5-(((5-ethynyl-6-fluoro-4-((5S,5aS,6S,9R)-1-fluoro-12-(((2R,7aS)-2-fluorotetrahydro-1H-pyrrolizin-7a(5H)-yl)methoxy)-5-methyl-4,5,5a,6,7,8,9,10-octahydro-3,10a,11,13,14-pentaaza-6,9-methanonaphtho[1,8-ab]heptalen-2-yl)naphthalen-2-yl)oxy)methyl)-1,3-dioxol-2-one] yielded an EC50 of 1300 pM.
